Among the data in patent US5288726A, “Tetrahydrothienopyridine derivatives, furo and pyrrolo analogs thereof and their preparation and uses for inhibiting blood platelet aggregation” (Ube Industries Limited, priority 1991, dated 1994) are inhibition values, retold here.

The term inhibition denotes the percentage by which the read-out fell short of the control.

This test concerns blood platelet aggregation. In words: Inhibition of blood platelet aggregation (ex vivo, ADP or collagen induced, rats dosed orally). It is filed as in vivo, rat (SD strain, female). Particulars: rat, oral, 4 hours before test, ADP or collagen (inducer not given), read-out: % Inhibition of blood platelet aggregation (Test Ex. 2). Here is the method: Inhibition of Blood Platelet Aggregation Female rats of the SD strain (supplied by Japan Charles River Inc.) were divided into groups of 4 each for the test. […] As a control, a 5% w/v aqueous solution of gum arabic was administered to a control group of rats, without any test drug. Blood platelet aggregation was tested according to the method of P. Lumley and P. P. A. Humphrey [J. Pharmacol. Methods 6, 153-166 (1981)]with a partial modification. […] The blood platelet aggregation rate was calculated from the following equation. […] The inhibitory effect was calculated as the percent inhibition of the treated groups as compared with the control groups.

Consider `O=C1C=C2CN(C(C(=O)C3CC3)c3ccccc3F)CCC2S1` (stereo not drawn) [Compound No. 235, 5-(α-Cyclopropylcarbonyl-2-fluorobenzyl)-2-oxo-2,4,5,6,7,7a-hexahydrothieno[3,2-c]pyridine], for which the inhibition at 1 mg/kg was found to be 98.8%.
Turning to `Clc1ccccc1CN1CCc2sccc2C1` [Compound A, 5 (2-chlorobenzyl)-4,5,6,7-tetrahydrothieno[3,2-c]pyridine, reference compound], under “30 mg/kg (footnote *)”, the inhibition at 30 mg/kg was 3.7%.
In the case of `CC(C)(C)C(=O)Oc1cc2c(s1)CCN(C(C(=O)C1CC1)c1ccccc1F)C2` (stereo not drawn) [Compound No. 196, 5-(α-Cyclopropylcarbonyl-2-fluorobenzyl)-2-pivaloyloxy-4,5,6,7-tetrahydrothieno[3,2-c]pyridine], the inhibition at 1 mg/kg came to 97.6%.
On to `O=C(C1CC1)C(c1ccccc1Cl)N1CCc2sccc2C1` (stereo not drawn) [Compound No. 60, 5-(2-Chloro-α-cyclopropylcarbonylbenzyl)-4,5,6,7-tetrahydrothieno[3,2-c]pyridine], for which the inhibition at 3 mg/kg is 74.2% and the inhibition at 10 mg/kg was determined as 100%.
In the case of `CCCC(=O)Oc1cc2c(s1)CCN(C(C(=O)C1CC1)c1ccccc1F)C2` (stereo not drawn) [Compound No. 194, 2-Butyryloxy-5-(α-cyclopropylcarbonyl-2-fluorobenzyl)4,5,6,7-tetrahydrothieno[3,2-c]pyridine], the inhibition at 1 mg/kg stood at 100%.
For the compound `O=C(C1CC1)C(c1ccccc1F)N1CCc2sccc2C1` (stereo not drawn) [Compound No. 59, 5-(α-Cyclopropylcarbonyl-2-fluorobenzyl)-4,5,6,7-tetrahydrothieno[3,2-c]pyridine], the inhibition at 1 mg/kg turned out to be 57.1% and the inhibition at 3 mg/kg was 98.1%.
Consider `COC(=O)C(c1ccccc1Cl)N1CCc2sccc2C1` (stereo not drawn) [Compound B, 5-(2-chloro-α-methoxycarbonylbenzyl) 4,5,6,7-tetrahydrothieno[3,2-c]pyridine, reference compound], for which the inhibition at 3 mg/kg amounted to 25.7% and the inhibition at 10 mg/kg came out at 98.8%.
Consider `CC(=O)Oc1cc2c(s1)CCN(C(C(=O)C1CC1)c1ccccc1F)C2` (stereo not drawn) [Compound No. 190, 2-Acetoxy-5-(α-cyclopropylcarbonyl-2-fluorobenzyl)4,5,6,7-tetrahydrothieno[3,2-c]pyridine], for which the inhibition at 1 mg/kg worked out at 100%.
As for `CCC(=O)C(c1ccccc1F)N1CCc2sccc2C1` (stereo not drawn) [Compound No. 19, 5-(2-Fluoro-α-propionylbenzyl)-4,5,6,7-tetrahydrothieno[3,2-c]pyridine], the inhibition at 3 mg/kg came to 29.3% and the inhibition at 10 mg/kg amounted to 97.8%.
Turning to `O=C1C=C2CN(C(C(=O)C3CC3)c3ccccc3Cl)CCC2S1` (stereo not drawn) [Compound No. 233, 5-(2-Chloro-α-cyclopropylcarbonylbenzyl)-2-oxo-2,4,5,6,7,7a-hexahydrothieno[3,2-c]pyridine], the inhibition at 10 mg/kg worked out at 98.9%.
